Data taken from ChEMBL document CHEMBL3407482, “Synthesis and assessment of the antioxidant and antitumor properties of asymmetric curcumin analogues” (Eur J Med Chem, 2015).

How the values were obtained:
[1] = Antioxidant activity assessed as DPPH radical scavenging activity by spectrophotometry; format: physicochemical
[2] = Drug metabolism in rat plasma after 24 hrs by HPLC analysis; format: ADME, cell-free; conditions: read-out: Drug metabolism
[3] = Antiproliferative activity against human SMMC7721 cells after 72 hrs by MTT assay; format: functional, cell-based; conditions: SMMC-7721, 72 h
[4] = Antioxidant activity assessed as superoxide radical scavenging activity after 5 mins by nitrotetrazolium blue chloride assay; format: physicochemical
[5] = system: MCF7; assay: Ratio of curcumin IC50 to compound IC50 for human MCF7 cells after 72 hrs by MTT assay; format: functional
[6] = system: SMMC-7721; assay: Ratio of curcumin IC50 to compound IC50 for human SMMC7721 cells after 72 hrs by MTT assay; format: functional
[7] = Antioxidant activity assessed as ROO. radical scavenging activity by TRAP assay; format: physicochemical
[8] = system: MCF7; assay: Antiproliferative activity against human MCF7 cells after 72 hrs by MTT assay; format: functional, cell-based; conditions: MCF7, 72 h
[9] = system: PC-3; assay: Ratio of curcumin IC50 to compound IC50 for human PC3 cells after 72 hrs by MTT assay; format: functional
[10] = Antiproliferative activity against human PC3 cells after 72 hrs by MTT assay; format: functional, cell-based; conditions: PC-3, 72 h
[11] = Antioxidant activity assessed as ABTS radical scavenging activity by spectrophotometry; format: physicochemical
[12] = system: Plasma; assay: Stability in rat plasma after 24 hrs by HPLC analysis; format: ADME, cell-free

Structure (SMILES) | IC50 [1] [µM] | metabolised at 24 h [2] [%] | IC50 [4] [µM] | IC50 [7] [µM] | IC50 [8] [µM] | IC50 [11] [µM] | Stability [12] | IC50 [3] [µM] | Ratio IC50 [5] | Ratio IC50 [6] | Ratio IC50 [9] | IC50 [10] [µM]
COc1cc(/C=C/C(=O)/C=C/c2ccc(O)c(OC)c2)ccc1O | 9.24 | 11.9 | 72.6 | 44.5 | 22.5 | 30.2 |  | 18.4 | 1.6 | 1.6 | 1.6 | 36.3
CCOc1cc(/C=C/C(=O)/C=C/c2ccc(O)c(OCC)c2)ccc1O | 50.1 |  | 193 | 128 | 26.6 | 128 |  | 19 |  |  |  | 51.4
COc1ccc(/C=C/C(=O)/C=C/c2ccc(O)c(OC)c2)cc1O | 46.3 |  | 169 | 123 | 56.5 | 105 |  | 21.6 |  |  |  | 61.3
COc1cc(/C=C/C(=O)/C=C/c2cc(OC)c(O)c(OC)c2)ccc1O | 28.7 |  | 124 | 96.4 | 28.9 | 85.7 |  | 15.1 |  |  |  | 70.2
CCOc1cc(/C=C/C(=O)/C=C/c2ccc(O)c(OC)c2)ccc1O | 31.6 |  | 122 | 97.2 | 41.9 | 80.6 | Unstable | 27.3 |  |  |  | 82.4
COc1ccc(/C=C/C(=O)/C=C/c2ccc(OC)c(OC)c2)cc1OC | > 5630 |  | > 5630 | > 5630 | 39.9 | > 5630 |  | 14.4 |  |  |  | 21.4
COc1cc(/C=C/C(=O)/C=C/c2cc(OC)c(OC)c(OC)c2)cc(OC)c1O | 28.1 |  | 117 | 70 | 43.6 | 75.1 |  | 10.9 |  |  |  | 23.7
COc1ccc(/C=C/C(=O)/C=C/c2ccc(OC)c(OC)c2)cc1O | 19.7 |  | 119 | 82 | 67.1 | 91.3 |  | 39.4 |  |  |  | 53.1
COc1cc(/C=C/C(=O)CC(=O)/C=C/c2ccc(O)c(OC)c2)ccc1O [CURCUMIN] | 13.5 | 55.3 | 89.8 | 54.4 | 70.2 | 48.6 |  | 39.4 |  |  |  | 59

Now from value to molecule, other results behind:

IC50 [1] [µM] | metabolised at 24 h [2] [%] | IC50 [4] [µM] | IC50 [7] [µM] | IC50 [8] [µM] | IC50 [11] [µM] | Stability [12] | Structure (SMILES) | IC50 [3] [µM] | Ratio IC50 [5] | Ratio IC50 [6] | Ratio IC50 [9] | IC50 [10] [µM]
41.5 |  | 178 | 136 | 21.7 | 103 |  | COc1cc(/C=C/C(=O)/C=C/c2ccc(C)c(C)c2)ccc1O | 23.4 |  |  |  | 
34.4 |  | 164 | 118 | 40.3 | 99.5 |  | COc1ccc(/C=C/C(=O)/C=C/c2cc(OC)c(OC)c(OC)c2)cc1O | 11.5 |  |  |  | 34.9
203 |  | 207 | 286 | 33.3 | 132 | Unstable | COc1ccc(O)c(/C=C/C(=O)/C=C/c2ccc(C)c(C)c2)c1 | 23.4 |  |  |  | 45.5
94.2 |  | 231 | 182 | 22.2 | 292 | Unstable | COc1ccc(O)c(/C=C/C(=O)/C=C/c2ccc(OC)c(OC)c2)c1 | 20.8 |  |  |  | 31.6
94.6 |  | 214 | 184 | 40.7 | 114 |  | COc1ccc(O)c(/C=C/C(=O)/C=C/c2cc(OC)c(OC)c(OC)c2)c1 | 25.3 |  |  |  | 39.9
32.6 |  | 156 | 113 | 52.8 | 113 |  | COc1cc(/C=C/C(=O)/C=C/c2ccc(C)c(C)c2)cc(OC)c1O | 13.6 |  |  |  | 25.3
13.5 |  | 80.9 | 47.8 | 9.11 | 36.3 |  | COc1ccc(/C=C/C(=O)/C=C/c2cc(OC)c(O)c(OC)c2)cc1OC | 24.1 |  |  |  | 36.9
> 4820 |  | > 4820 | > 4820 | 13.9 | > 4820 | Unstable | COc1cc(/C=C/C(=O)/C=C/c2cc(OC)c(OC)c(OC)c2)cc(OC)c1OC | 16.6 |  |  |  | 42.1
92 |  | 204 | 193 | 70.4 | 177 |  | COc1ccc(/C=C/C(=O)/C=C/c2ccc(OC)c(O)c2)cc1O | 9.68 |  |  |  | 97.3
45.4 |  | 167 | 102 |  | 105 |  | O=C1O[C@H]([C@@H](O)CO)C(O)=C1O [ASCORBIC ACID] |  |  |  |  | 
